Test results as given in patent US12691121B2, “Treatment of pulmonary arterial hypertension” (IMPERIAL COLLEGE INNOVATIONS LIMITED, priority 2020, dated 2026).
pKd: −log10 of the molar value. Where two headings read alike, the source gives them in different places.

Tests used:
[1] = system: human pulmonary microvascular endothelial cells (HPMEC); test: DMOG-induced apoptosis in HPMEC; assay type: cell-based
Source text: The effects of various TSPO ligands on HPMEC under DMOG (a permeable prolyl-4-hydroxylase inhibitor which upregulates hypoxia-inducible factor and causes apoptosis) stimulation were investigated.

[2] = target: T1, TSPO (Rattus norvegicus, UniProt P16257); test: 11C-PBR28 PET imaging, ligand specificity tested by XBD-173 pre-treatment; assay type: in vivo; conditions: rats treated with XBD-173 prior to PET imaging
T1 construct: from tissue; host or cells: lungs and right ventricle of living control and monocrotaline-treated rats (in vivo PET)
Protocol: PET imaging was performed in healthy control and MCT 4 weeks rats (60 mg/kg subcutaneous injection). The uptake of TSPO PET tracer, ^11C-PBR28, was measured in the lungs and RV.

[3] = system: MCT rat; test: MCT rat PH model: pulmonary arterial pressure, RVSP, RV hypertrophy, systemic blood pressure; assay type: in vivo
Protocol: Modulation of TSPO by XBD-173 was assessed in MCT rats. […] Heart and lung glucose metabolism were also assessed by FDG-PET imaging. […] This attenuation was dose-dependent manner. […] (data not shown).

[4] = system: MCT rat; test: MCT rat PH model: pulmonary vascular remodelling and CD68+ macrophage infiltration (histology); assay type: in vivo
Protocol: Modulation of TSPO by XBD-173 was assessed in MCT rats. […] Heart and lung glucose metabolism were also assessed by FDG-PET imaging.

[5] = system: MCT rat; test: MCT rat PH model: MRI of RV structure and function; assay type: in vivo
[6] = system: MCT rat; test: MCT rat PH model: RV immunofluorescence (WGA cardiomyocyte size, CD31 micro-vessels); assay type: in vivo
Source text: Bar charts illustrating the quantitative data from immunofluorescence staining. ***p<0.001.
Immunofluorescence staining was used to examine the RV structural changes. The cardiomyocyte size was quantified by wheat germ agglutinin (WGA) and the number of micro-vessels by CD31 at RV insertion point.

[7] = system: SuHx rat; test: SuHx rat model: PAP, RV hypertrophy, systolic blood pressure; assay type: in vivo; conditions: SuHx rats, 2 mg/kg twice a day for two weeks
[8] = system: Human pulmonary artery smooth muscle cells (PASMCs); test: PDGF- and hypoxia-stimulated proliferation of PASMCs; assay type: cell-based
[9] = system: HPAECs; test: TNF-α stimulated HPAEC activation: E-selectin ELISA and cytokine array; assay type: cell-based, human; conditions: 10 nM and 50 nM
Protocol: HPAECs were pre-treated with XBD173 (10 nM and 50 nM) for 24 hours before TNF-α (10 ng/ml) stimulation for 8 hours. At the end of the experiment, cell numbers were counted and cell culture supernatants collected (n=4 per group, control, TNF-α, TNF-α with XBD 10 nM and 50 nM treatments) for cytokine assay using the proteome profiler human cytokine array kit (R&D systems, ARY005B) and E-selectin ELISA assay. […] Further, XBD173 observably attenuated release of multiple cytokines and chemokines (CXCL-10, RANTES, IL-6, IL-21, IL-18, CXCL11, G-CSF and CXCL12) from HPAEC in response to TNF-α stimulation.

[10] = system: HPAEC; test: ROS production in TNF-α stimulated HPAEC (CellROX Green); assay type: cell-based, human; conditions: 10 nM and 50 nM; P<0.001; levels similar to TNF-α untreated control
Protocol: (§1) Mitochondrial membrane potential was determined using 20 nM Tetramethylrhodamine, Ethyl Ester, Perchlorate (TMRE; Life technologies, T669). ROS production was detected using 5 uM CellROX Green (Life technologies, C10444). 1 ug/mL Hoechst 33342 (Life technologies, H1399) was added for nucleus staining. Images were obtained with a Zeiss Axio Observer inverted widefield microscope. […] In addition, XBD173 signifantly (P<0.001) increased the mitochondrial membrane potentials following TNF-α stimulation, with the mitochondrial membrane potentials with XBD173 treatment recovering to similar levels to those seen for the TNF-α untreated control.

[11] = system: HPAEC; test: Mitochondrial membrane potential in TNF-α stimulated HPAEC (TMRE); assay type: cell-based, human; conditions: 10 nM and 50 nM; P<0.001; recovering to levels similar to TNF-α untreated control
Protocol: as §1

[12] = target: human TSPO (Homo sapiens, UniProt P30536); conditions: cited from earlier work
[13] = target: human TSPO (Homo sapiens, UniProt P30536, T147A); conditions: human subjects with high-affinity binding of their TSPO; read-out: mean Kd, high affinity binders; cited from earlier work
[14] = 2 mg/Kg once and twice a day, 2-4 weeks

human TSPO (Homo sapiens, UniProt P30536, T147A), sequence (P30536 2-169 T147A): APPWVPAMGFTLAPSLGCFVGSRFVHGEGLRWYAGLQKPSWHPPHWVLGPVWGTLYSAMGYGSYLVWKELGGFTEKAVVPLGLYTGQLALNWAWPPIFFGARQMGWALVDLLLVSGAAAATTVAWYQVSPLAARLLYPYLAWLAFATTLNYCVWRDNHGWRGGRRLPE

## CN1C(=O)CN=C(c2ccc(Cl)cc2)c2cc(Cl)ccc21 [Ro 5-4864]
[1]; FIG. 12E, 10 nM
  DMOG-induced apoptotic effects in HPMECs: reversed

## CCOC(=O)C1=C[C@]2(CC)CCCN3CCc4c(n1c1ccccc41)[C@@H]32 [Vinpocetine]
[1]; FIG. 12C, 800 nM
  DMOG-induced apoptotic effects in HPMECs: reversed

## CCC(C)N(C)C(=O)c1cc2ccccc2c(-c2ccccc2Cl)n1 (stereo not drawn) [PK95111]
[1]; FIG. 12B, 3 nM, 30 nM and 300 nM
  DMOG-induced apoptotic effects in HPMECs: reversed

## CCNC1=Nc2ccc(Cl)cc2C(C)(c2ccccc2)O1 (stereo not drawn) [Etifoxine]
[1]; FIG. 12F, 10 uM
  DMOG-induced apoptotic effects in HPMECs: reversed

## CC(=O)N(Cc1ccccc1O[11CH3])c1cnccc1Oc1ccccc1 [PBR28]
[1]; FIG. 12D, 5 nM
  DMOG-induced apoptotic effects in HPMECs: reversed

## CCN(Cc1ccccc1)C(=O)Cn1c(=O)n(C)c2cnc(-c3ccccc3)nc21 [XBD-173, N-Ethyl-7,8-dihydro-7-methyl-8-oxo-2-phenyl-N-(phenylmethyl)-9H-purine-9-acetamide]
[2]
  PBR28 lung signals (11C-PBR28 PET): blocked
[3]; [14]
  RV/body weight (RV/BW): attenuated
  RVSP (RV catheterisation): attenuated
[3]; 2 mg/Kg once and twice a day, 2-4 weeks, vs 57.30 untreated MCT
  RVH (RV/LV+sp ratio, dissected heart tissue): 40.30
[3]; 2 mg/Kg once and twice a day, treatment from 2 weeks to 4 weeks, vs 45.37 untreated MCT
  pulmonary arterial pressure (PAP): 27.23 mmHg
[3]; data not shown
  systemic blood pressure: no significant effect
[4]; MCT rat lung
  inflammatory cell (CD68, macrophage) infiltration: attenuated
[4]; MCT rat, 2 mg/Kg once and twice a day, 2-4 weeks, vs 75.24 untreated MCT
  pulmonary vascular remodelling (% of muscularised vessels): 53.57%
[5]
  RV cardiac index (RVCI): restoring
  RV dilation (RV end diastolic volume index, RVEDVI): significantly reduced
  RV ejection fraction (RVEF): restoring
  RV hypertrophy as RV mass index (RVMI): reduced
  RV hypertrophy as ventricular mass index (VMI): reduced
  ventricular-vascular coupling (Ees/Ea): restoring
[6]; MCT rat RV
  RV cardiomyocyte hypertrophy (myocyte size, WGA): attenuated
[6]; MCT rat RV insertion point
  RV capillary density (CD31 micro-vessels): increased
[7]
  RV hypertrophy: significant decrease
  pulmonary arterial pressure (PAP): significant decrease
  systemic blood pressure: no significant effect
[8]; PDGF stimulus
  PDGF-stimulated proliferation of PASMCs: attenuated
[8]; hypoxia stimulus (O2=2%)
  hypoxia-stimulated proliferation of PASMCs: attenuated
[1]; Example 4, FIG. 11
  DMOG-induced apoptotic effects in HPMECs: reversed
[1]; FIG. 12A, 10 nM, 50 nM and 100 nM
  DMOG-induced apoptotic effects in HPMECs: reversed
[9]; 24 hours pre-treatment, TNF-α 10 ng/ml 8 hours, P<0.05
  activation of HPAECs by TNF-α (E-selectin expression): reduced
[9]; TNF-α stimulation
  CXCL11 release: attenuated
  CXCL12 release: attenuated
  CXCL-10 release: attenuated
  G-CSF release: attenuated
  IL-6 release: attenuated
  IL-18 release: attenuated
  IL-21 release: attenuated
  RANTES release: attenuated
[10]
  ROS production following TNF-α stimulation: reduced
[11]
  mitochondrial membrane potentials following TNF-α stimulation: increased
[12]; human subjects with both high- and low-affinity binding sites, read-out: mean Kd, mixed affinity binders
  pKd: ~7.96
[12]; human subjects with low-affinity binding of their TSPO, read-out: mean Kd, low affinity binders
  pKd: ~7.52
[13]
  pKd: ~8.60
